9 molecules from PubChem BioAssay (NCI) can be followed below.

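1) Cells in 96-well plates. 2) Compound, 48 h, 5 concentrations. 3) Linear interpolation between surrounding doses. 4) Unreached endpoint = highest concentration. Here, GI50 denotes the concentration required for 50% inhibition of growth. The concentration for full growth arrest is given as TGI.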 Bounds are passed on as bounds.

Test systems include OVCAR-4 ovarian; T-47D breast; 786-0 renal; TK-10 renal; SNB-19 CNS; UACC-62 melanoma; KM12 colon; SK-MEL-28 melanoma; RPMI-8226 leukemia; MDA-MB-231 breast.
What all share (assay): DTP human tumour cell line panel, 48 h

Usually GI50 stands for the concentration at which growth is held to half of that of the control. As usually defined, the TGI is the concentration giving total growth inhibition. A low value points to more potent growth arrest. Consider `Cc1ccc(C(=O)Nc2ccc(CN3CCN(C)CC3)c(C(F)(F)F)c2)cc1C#Cc1cnc(N)c2ccc(C#N)cc12`, for which the GI50 was 0.375 µM with OVCAR-4 ovarian; 3.57 µM in the experiment on T-47D breast; 0.426 µM in the experiment with 786-0 renal; 0.625 µM in the experiment with TK-10 renal; 3.2 µM in the experiment with SNB-19 CNS; 0.0212 µM in the experiment with UACC-62 melanoma. For the same molecule, the GI50 in the experiment on KM12 colon is 0.304 µM; with SK-MEL-28 melanoma, 0.108 µM; in the experiment on RPMI-8226 leukemia, 1.08 µM; in the experiment with MDA-MB-231 breast it was 0.23 µM. For the same molecule, the TGI is 11.8 µM with OVCAR-4 ovarian; above 50 µM with T-47D breast; 3.79 µM in the experiment on 786-0 renal; 5.75 µM with TK-10 renal; 19.9 µM in the experiment with SNB-19 CNS; 3.64 µM in the experiment on UACC-62 melanoma. The TGI in the experiment with KM12 colon came out at 17.4 µM; in the experiment on SK-MEL-28 melanoma, 3.47 µM; in the experiment with RPMI-8226 leukemia, 19.4 µM; in the experiment with MDA-MB-231 breast it was 2.02 µM.
Regarding `O=C(CC(O)c1cccnc1)CC(O)c1cccnc1` (stereo not given), the TGI in the experiment on OVCAR-4 ovarian was 40.9 µM; in the experiment with T-47D breast, above 73.5 µM; with 786-0 renal it was 39.2 µM; with TK-10 renal it was above 100 µM; in the experiment on SNB-19 CNS it was 55.4 µM; in the experiment with UACC-62 melanoma, 32.2 µM. Moreover, the TGI is 26.7 µM with KM12 colon, 44.2 µM with SK-MEL-28 melanoma, above 100 µM in the experiment with RPMI-8226 leukemia and 29.9 µM in the experiment with MDA-MB-231 breast.
Take `C/C(=N\NC(=O)c1cccc(S(=O)(=O)N2CCN(C)CC2)c1)c1cc(Cl)ccc1O`: the GI50 with OVCAR-4 ovarian was 0.545 µM; in the experiment with T-47D breast it was 0.634 µM; with 786-0 renal, 0.992 µM; in the experiment with TK-10 renal, 0.491 µM; in the experiment on SNB-19 CNS, 2.03 µM; with UACC-62 melanoma, 0.873 µM. Moreover, the GI50 is 0.713 µM in the experiment with KM12 colon, 1.36 µM in the experiment on SK-MEL-28 melanoma, 1.33 µM in the experiment on RPMI-8226 leukemia and 0.667 µM in the experiment on MDA-MB-231 breast. For the same molecule, the total growth inhibition concentration (TGI) in the experiment with OVCAR-4 ovarian is above 100 µM; in the experiment on T-47D breast, above 100 µM; in the experiment with 786-0 renal it was above 100 µM; with TK-10 renal it was above 88.6 µM; in the experiment on SNB-19 CNS, above 100 µM; in the experiment with UACC-62 melanoma, 6.4 µM. Besides, the TGI in the experiment on KM12 colon was above 66.8 µM; with SK-MEL-28 melanoma, above 61.3 µM; in the experiment with RPMI-8226 leukemia it was above 100 µM; with MDA-MB-231 breast, above 100 µM.
For `CC[C@]12C=CCN3CC[C@@]4(c5ccc(OC)cc5N(C)[C@H]4[C@@](O)(C(=O)OC)[C@@H]1OC(=O)CCCC[P+](c1ccccc1)(c1ccccc1)c1ccccc1)[C@@H]32`, the GI50 in the experiment on OVCAR-4 ovarian was 0.342 µM; with T-47D breast, 0.396 µM; with 786-0 renal, 2.33 µM; in the experiment with TK-10 renal, 2.79 µM; in the experiment with SNB-19 CNS, 0.384 µM; in the experiment on UACC-62 melanoma, 0.374 µM. Moreover, the GI50 in the experiment with KM12 colon is 0.44 µM; with SK-MEL-28 melanoma it was 0.52 µM; in the experiment on RPMI-8226 leukemia, 0.332 µM; in the experiment with MDA-MB-231 breast, 0.414 µM. Further, the TGI in the experiment on OVCAR-4 ovarian is 10.8 µM; in the experiment with T-47D breast, 12.7 µM; in the experiment with 786-0 renal, 6.74 µM; in the experiment with TK-10 renal, 9.66 µM; in the experiment on SNB-19 CNS it was 2.92 µM; in the experiment with UACC-62 melanoma it was 1.54 µM. For the same molecule, the total growth inhibition concentration (TGI) with KM12 colon was determined as 1.85 µM; in the experiment on SK-MEL-28 melanoma, 1.84 µM; with RPMI-8226 leukemia it was 2.11 µM; in the experiment on MDA-MB-231 breast it was 1.9 µM.
In the case of `CCCCCCCCCCCCCCCCSS(C)(=O)=O`, the TGI was 54.7 µM in the experiment with OVCAR-4 ovarian; 24.1 µM in the experiment on T-47D breast; 27 µM in the experiment on 786-0 renal; 52.9 µM in the experiment with TK-10 renal; above 100 µM in the experiment with SNB-19 CNS; above 57.5 µM in the experiment with UACC-62 melanoma. Further, the TGI in the experiment on KM12 colon is above 100 µM; in the experiment on SK-MEL-28 melanoma, 25.4 µM; with RPMI-8226 leukemia it was 14.1 µM; in the experiment with MDA-MB-231 breast, above 100 µM.
For `Nc1c(C(=O)c2cccc(C(O)(CO)CO)c2)cnn1-c1ccc(F)cc1`, the GI50 in the experiment on OVCAR-4 ovarian, in the experiment on T-47D breast, in the experiment with 786-0 renal, in the experiment with TK-10 renal, with SNB-19 CNS and in the experiment with UACC-62 melanoma was above 25 µM in each case. The GI50 in the experiment with KM12 colon, with SK-MEL-28 melanoma, in the experiment on RPMI-8226 leukemia and in the experiment with MDA-MB-231 breast was above 25 µM in each case. The TGI with OVCAR-4 ovarian, in the experiment with T-47D breast, in the experiment on 786-0 renal, with TK-10 renal, in the experiment with SNB-19 CNS and in the experiment with UACC-62 melanoma was above 25 µM throughout. In addition, the TGI in the experiment on KM12 colon, with SK-MEL-28 melanoma, in the experiment on RPMI-8226 leukemia and in the experiment on MDA-MB-231 breast was above 25 µM each time.
As for `COc1ccc(C(=O)OC2C(OC3C(O)COC(O[C@H]4C[C@H]5[C@@H]6CC=C7C[C@@H](O)CC[C@]7(C)[C@H]6CC[C@]5(C)[C@H]4[C@H](C)C(=O)CCC(C)C)C3OC(=O)C(C)C)OCC(O)C2O)cc1` (stereo not given in full), the GI50 with OVCAR-4 ovarian is 0.295 µM; in the experiment on T-47D breast it was 0.0358 µM; in the experiment on 786-0 renal, below 0.00275 µM; in the experiment on TK-10 renal, 0.411 µM; with SNB-19 CNS, 0.0336 µM; in the experiment on UACC-62 melanoma, 0.00668 µM. Also, the GI50 is 0.0707 µM in the experiment with KM12 colon, 0.011 µM in the experiment on SK-MEL-28 melanoma, below 0.00275 µM in the experiment with RPMI-8226 leukemia and 0.101 µM with MDA-MB-231 breast. Moreover, the TGI in the experiment with OVCAR-4 ovarian came to 5.12 µM; in the experiment with T-47D breast it was 3.08 µM; with 786-0 renal, 2.99 µM; in the experiment on TK-10 renal, 6.24 µM; in the experiment with SNB-19 CNS it was 3.97 µM; in the experiment on UACC-62 melanoma it was 0.0185 µM. Moreover, the TGI amounted to 4.77 µM in the experiment with KM12 colon, 0.0612 µM in the experiment with SK-MEL-28 melanoma, 0.01 µM with RPMI-8226 leukemia and 4.65 µM with MDA-MB-231 breast.
As to `CS(=O)(=O)c1nccc(-c2c(-c3cccc(OCc4ccccc4)c3)nc3sccn23)n1`, the GI50 was 9.97 µM in the experiment on OVCAR-4 ovarian; 11.7 µM with T-47D breast; 12.9 µM with 786-0 renal; 53.2 µM in the experiment on TK-10 renal; above 43.8 µM in the experiment on SNB-19 CNS; 13.8 µM in the experiment on UACC-62 melanoma. For the same molecule, the GI50 in the experiment with KM12 colon was 4.64 µM; with SK-MEL-28 melanoma, 12.2 µM; with RPMI-8226 leukemia, 9.24 µM; with MDA-MB-231 breast it was 16.2 µM. The TGI in the experiment on OVCAR-4 ovarian, with T-47D breast, in the experiment with 786-0 renal, in the experiment on TK-10 renal, with SNB-19 CNS and in the experiment with UACC-62 melanoma was above 100 µM throughout. Besides, the TGI was 9.98 µM in the experiment with KM12 colon, above 100 µM with SK-MEL-28 melanoma, above 32.3 µM in the experiment on RPMI-8226 leukemia and above 100 µM in the experiment on MDA-MB-231 breast.
Regarding `NNC(=O)C(O)C(O)C(O)CO` (stereo not given), the TGI in the experiment with OVCAR-4 ovarian, in the experiment on T-47D breast, in the experiment with 786-0 renal, with TK-10 renal, with SNB-19 CNS and with UACC-62 melanoma was above 100 µM in each case. The concentration for total growth inhibition (TGI) in the experiment with KM12 colon, in the experiment on SK-MEL-28 melanoma, in the experiment on RPMI-8226 leukemia and in the experiment on MDA-MB-231 breast was above 100 µM each time.
